Assay [1] has as its system Normal Human Epidermal Keratinocytes (NHEK). The assay is described as follows: Comet assay of DNA fragmentation in NHEK exposed to UVB (Test Example 1). Format: cell-based. The settings on record: FIG. 1. On the procedure:
This study used control samples and three types of test samples. Control samples were neither treated with the peptide, nor exposed to UVB radiation. Type 1 samples were treated with the peptide, as described below, but not exposed to UVB radiation. Type 2 samples were not treated with the peptide, but were exposed to UVB radiation. Type 3 samples were treated with the peptide, as described below, and exposed to UVB radiation. SIRT6 activating peptide (SEQ ID No. 1) in powdered form was prepared in solution at 50 ppm.
For all test samples, Normal Human Epidermal Keratinocytes (NHEK) were seeded on Trevigen Flare™ slides at 8,000 cells/spot for DNA fragmentation analysis. Cells were incubated at 37° C., 95% humidity and 5% CO2 in cell culture media for 24 hours. Type 1 and type 3 samples were treated with the 50 ppm powdered peptide solution at 3% of the cell culture media (equivalent to 0.00015% of peptide in solution), and all samples were incubated for 48 hours. Thereafter, the cell culture media was removed from all samples and replaced with 100 μl of Dulbecco's Phosphate Buffered Saline. […]
Following the six hour incubation, the sample cells were washed with phosphate buffered saline. […] The tail moments were analyzed with the Comet Score software from TriTek, Corp (Sumerduck, Va.). […]

The next assay relates to sirtuin 6. The settings on record: cited from earlier work; for sirtuin 6 expression: short-term cultures.
A further assay relates to SIRT6. The following applies: Normal Human Epidermal Keratinocytes (NHEK); cited from earlier work.

Like-named read-outs stand apart in the source and are kept apart here. Ends that are not written are not given here.

On to “Gly-Ala-Gly-Val-Ser-Ala-Glu-NH2 (GAGVSAE-NH2) [SEQ ID No. 1]”, for which the “DNA fragmentation (comet tail moment)” value is “comparable to the control samples” in assay [1] (type 1 samples: NHEK treated with peptide (0.00015% in solution), not irradiated) and “comparable to the control samples” in assay [1] (type 3 samples: NHEK pre-treated with peptide 48 h (0.00015%), 20 mJ/cm^2 UVB, post-treated 6 h). Moreover, in the assay with sirtuin 6 (long term cultures), the “sirtuin 6 expression stimulation effect, long term” value is “maintained for the long term”. Besides, the “sirtuin 6 expression” value in the assay with sirtuin 6 (normal human fibroblasts) and in the assay on sirtuin 6 (normal human keratinocytes) was “increase sirtuin 6 expression very significantly” each time. Besides, the SIRT6 expression result with SIRT6 is on record as “dose dependent increase in SIRT6 expression”.

These data come from patent US9539196B2, “Compositions comprising a SIRT6 activator and a DNA repair enzyme” (ELC Management LLC, priority 2014, dated 2017).
